experiment: Determination of the maximum tolerated dose (MTD); assay type: in vivo; conditions: mouse, in vivo, ip; single intraperitoneal administration, survival over 14 days, B6D2F1/Jico mice
Experimental: The evaluation of the maximum tolerated dose was carried out on 4- to 6-week-old B6D2F1/Jico mice. […] The value of the MTD (expressed in mg/kg) is determined from observing the survival rate of the animals over a period of 14 days after a single administration of the product under consideration. The change in the weight of the animals is also monitored over this period.

| SMILES | MTD at 14 days |
| --- | --- |
| O=C1c2nc(O)ccc2C(=O)c2c(-c3ccccc3NC(=O)C(F)(F)F)ccnc21 [CRL 8429, 8-Hydroxy-4-(2-trifluoroacetamidophenyl)pyrido[3,2-g]-quinoline-5,10-dione] | 40 mg/kg |
| COc1ccnc2c1C(=O)c1c(-c3ccccc3[N+](=O)[O-])ccnc1C2=O [CRL 8243, 6-Methoxy-4-(2-nitrophenyl)pyrido[3,2-g]quinoline-5,10-dione] | > 160 mg/kg |
| CC(=O)Nc1ccnc2c1C(=O)c1c(-c3ccccc3NC(=O)C(F)(F)F)ccnc1C2=O [CRL 8428, 6-(Acetamido)-4-(2-trifluoroacetamidophenyl)pyrido-[3,2-g]quinoline-5,10-dione] | > 160 mg/kg |
| O=C1c2nccc(Cl)c2C(=O)c2c(-c3ccccc3NC(=O)C(F)(F)F)ccnc21 [CRL 8250, 6-Chloro-4-(2-trifluoroacetamidophenyl)pyrido[3,2-g]-quinoline-5,10-dione] | 20 mg/kg |
| O=C1c2nc(O)ccc2-c2nc3ccccc3c3ccnc1c23 [CRL 8432, 10-Hydroxybenzo[b]pyrido[4,3,2-de][1,7]phenanthroline-8-one] | > 160 mg/kg |
| O=C1c2nccc(Cl)c2-c2nc3ccccc3c3ccnc1c23 [CRL 8242, 12-Chlorobenzo[b]pyrido[4,3,2-de][1,7]phenanthroline-8-one] | > 160 mg/kg |
| CN(C)c1ccnc2c1-c1nc3ccccc3c3ccnc(c13)C2=O [CRL 8427, 12-Dimethylaminobenzo[b]pyrido[4,3,2-de][1,7]phenanthroline-8-one] | > 160 mg/kg |
| O=C1c2nccc(Cl)c2C(=O)c2c(-c3ccccc3[N+](=O)[O-])ccnc21 [CRL 8296, 6-Chloro-4-(2-nitrophenyl)pyrido[3,2-g]quinoline-5,10-dione] | 80 mg/kg |
| O=C1c2nccc([N+](=O)[O-])c2-c2nc3ccccc3c3ccnc1c23 [CRL 8273, 12-Nitrobenzo[b]pyrido[4,3,2-de][1,7]phenanthroline-8-one] | > 80 mg/kg |
| O=C(O)C(F)(F)F.O=C1c2nccc(Br)c2-c2nc3ccccc3c3ccnc1c23 [CRL 8259, 12-Bromobenzo[b]pyrido[4,3,2-de][1,7]phenanthroline-8-one Trifluoroacetate] | 40 mg/kg |
| O=C(O)C(F)(F)F.O=C1c2nccc([N+](=O)[O-])c2-c2nc3ccccc3c3ccnc1c23 [CRL 8258, 12-Nitrobenzo[b]pyrido[4,3,2-de][1,7]phenanthroline-8-one Trifluoroacetate] | 40 mg/kg |
| Nc1ccnc2c1C(=O)c1c(-c3ccccc3[N+](=O)[O-])ccnc1C2=O [CRL 8300, 6-Amino-4-(2-nitrophenyl)pyrido[3,2-g]quinoline-5,10-dione] | 80 mg/kg |
| CN(C)c1ccnc2c1C(=O)c1c(-c3ccccc3NC(=O)C(F)(F)F)ccnc1C2=O [CRL 8426, 6-(Dimethylamino)-4-(2-trifluoroacetamidophenyl)pyrido-[3,2-g]quinoline-5,10-dione] | > 160 mg/kg |
| O=C1c2nccc(-c3ccccc3NC(=O)C(F)(F)F)c2C(=O)c2c([N+](=O)[O-])ccnc21 [CRL 8267, 6-Nitro-4-(2-trifluoroacetamidophenyl)pyrido[3,2-g]-quinoline-5,10-dione] | 20 mg/kg |
